According to patent US9663473B2 (Actelion Pharmaceuticals Ltd, priority 2013, dated 2017):

biological target: T1, recombinant human ALX receptor (Homo sapiens, UniProt P25090); assay: Intracellular calcium measurements (FLIPR), ALX receptor agonistic activity; assay type: cell-based; details: HEK293-hALXR-Gα16 cells, Fluo-4 calcium signal, normalized to WKYMVm 10 nM
T1 construct: expressed in transfected cells; host or cells: HEK293 (HEK293-hALXR-Gα16)
T1 sequence (P25090 1-351): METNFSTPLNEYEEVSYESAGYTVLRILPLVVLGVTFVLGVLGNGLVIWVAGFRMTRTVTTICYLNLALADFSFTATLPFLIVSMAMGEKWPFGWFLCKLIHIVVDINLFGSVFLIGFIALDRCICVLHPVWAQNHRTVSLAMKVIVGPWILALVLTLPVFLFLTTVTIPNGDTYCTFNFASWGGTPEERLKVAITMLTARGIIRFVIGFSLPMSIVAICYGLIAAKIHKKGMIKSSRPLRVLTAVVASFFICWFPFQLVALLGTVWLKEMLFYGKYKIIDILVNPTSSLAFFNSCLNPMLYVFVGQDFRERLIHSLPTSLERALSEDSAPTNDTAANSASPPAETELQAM
How it was run: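 Agonist-induced calcium flux was read by FLIPR (488/540 nm) as baseline-subtracted peak emission, expressed relative to WKYMVm at 10 nM final. Cells used: HEK293-hALXR-Gα16, dye-loaded 60 min at 37° C. with 1 μM Fluo-4 AM before compound dose-response addition.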

EC50 | Structure (SMILES)
0.115 µM | COc1ccc(C[C@@H](NC(=O)NCCc2ccccc2C(F)(F)F)c2nc3ccccc3[nH]2)cc1 [Example 274, (R)-1-(1-(1H-Benzo[d]imidazol-2-yl)-2-(4-methoxyphenyl)ethyl)-3-(2-(trifluoromethyl)phenethyl)urea]
0.126 µM | COc1ccc(C[C@@H](NC(=O)NCCc2ccc(C)c(C)c2)c2nc3ccccc3[nH]2)cc1 [Example 275, (R)-1-(1-(1H-Benzo[d]imidazol-2-yl)-2-(4-methoxyphenyl)ethyl)-3-(3,4-dimethylphenethyl)urea]
0.229 µM | COc1ccc(C[C@@H](NC(=O)NCc2cccc(C)c2)c2nc3ccccc3[nH]2)cc1 [Example 276, (R)-1-(1-(1H-Benzo[d]imidazol-2-yl)-2-(4-methoxyphenyl)ethyl)-3-(3-methylbenzyl)urea]
0.082 µM | COc1ccc(C[C@@H](NC(=O)NC2(c3ccc(C)cc3)CC2)c2nc3ccccc3[nH]2)cc1 [Example 277, (R)-1-(1-(1H-Benzo[d]imidazol-2-yl)-2-(4-methoxyphenyl)ethyl)-3-(1-(p-tolyl)cyclopropyl)urea]
0.051 µM | COc1ccc(C[C@@H](NC(=O)NCC2(c3ccccc3)CCCCC2)c2nc3ccccc3[nH]2)cc1 [Example 278, (R)-1-(1-(1H-Benzo[d]imidazol-2-yl)-2-(4-methoxyphenyl)ethyl)-3-((1-phenylcyclohexyl)methyl)urea]
0.04 µM | CCC(NC(=O)N[C@H](Cc1ccc(OC)cc1)c1nc2ccccc2[nH]1)c1ccccc1 (stereo partly drawn) [Example 279, 1-((R)-1-(1H-Benzo[d]imidazol-2-yl)-2-(4-methoxyphenyl)ethyl)-3-(1-phenylpropyl)urea]
0.25 µM | COc1ccc(C[C@@H](NC(=O)NCCc2cccnc2)c2nc3ccccc3[nH]2)cc1 [Example 280, (R)-1-(1-(1H-Benzo[d]imidazol-2-yl)-2-(4-methoxyphenyl)ethyl)-3-(2-(pyridin-3-yl)ethyl)urea]
0.105 µM | COc1ccc(C[C@@H](NC(=O)NC[C@@H](O)c2ccccc2)c2nc3ccccc3[nH]2)cc1 [Example 281, 1-((R)-1-(1H-Benzo[d]imidazol-2-yl)-2-(4-methoxyphenyl)ethyl)-3-((S)-2-hydroxy-2-phenylethyl)urea]
0.351 µM | COc1ccc(C[C@@H](NC(=O)NCC2COc3cnccc32)c2nc3ccccc3[nH]2)cc1 (stereo partly drawn) [Example 282, 1-((R)-1-(1H-Benzo[d]imidazol-2-yl)-2-(4-methoxyphenyl)ethyl)-3-((2,3-dihydrofuro[2,3-c]pyridin-3-yl)methyl)urea]
0.295 µM | COc1ccc(C[C@@H](NC(=O)NC2(c3cccc(Cl)c3)CC2)c2nc3ccccc3[nH]2)cc1 [Example 283, (R)-1-(1-(1H-Benzo[d]imidazol-2-yl)-2-(4-methoxyphenyl)ethyl)-3-(1-(3-chlorophenyl)cyclopropyl)urea]
0.353 µM | COc1ccc(C[C@@H](NC(=O)NCc2ccn(-c3ccccc3)n2)c2nc3ccccc3[nH]2)cc1 [Example 284, (R)-1-(1-(1H-Benzo[d]imidazol-2-yl)-2-(4-methoxyphenyl)ethyl)-3-((1-phenyl-1H-pyrazol-3-yl)methyl)urea]
0.284 µM | COc1ccc(C[C@@H](NC(=O)NCCc2cnccn2)c2nc3ccccc3[nH]2)cc1 [Example 285, (R)-1-(1-(1H-Benzo[d]imidazol-2-yl)-2-(4-methoxyphenyl)ethyl)-3-(2-(pyrazin-2-yl)ethyl)urea]
0.102 µM | COc1ccc(C[C@@H](NC(=O)NCCN2CCc3ccccc32)c2nc3ccccc3[nH]2)cc1 [Example 286, (R)-1-(1-(1H-Benzo[d]imidazol-2-yl)-2-(4-methoxyphenyl)ethyl)-3-(2-(indolin-1-yl)ethyl)urea]
0.092 µM | COc1ccc(C[C@@H](NC(=O)NCc2ncccc2C)c2nc3ccccc3[nH]2)cc1 [Example 287, (R)-1-(1-(1H-Benzo[d]imidazol-2-yl)-2-(4-methoxyphenyl)ethyl)-3-((3-methylpyridin-2-yl)methyl)urea]
0.853 µM | COc1ccc(C[C@@H](NC(=O)NCc2ccncc2)c2nc3ccccc3[nH]2)cc1 [Example 288, (R)-1-(1-(1H-Benzo[d]imidazol-2-yl)-2-(4-methoxyphenyl)ethyl)-3-(pyridin-4-ylmethyl)urea]
0.059 µM | CCn1ccc(C(C)NC(=O)N[C@H](Cc2ccc(OC)cc2)c2nc3ccccc3[nH]2)n1 (stereo partly drawn) [Example 289, 1-((R)-1-(1H-Benzo[d]imidazol-2-yl)-2-(4-methoxyphenyl)ethyl)-3-(1-(1-ethyl-1H-pyrazol-3-yl)ethyl)urea]
0.037 µM | COc1ccc(C[C@@H](NC(=O)NC[C@H](O)c2ccccc2)c2nc3ccccc3[nH]2)cc1 [Example 290, 1-((R)-1-(1H-Benzo[d]imidazol-2-yl)-2-(4-methoxyphenyl)ethyl)-3-((R)-2-hydroxy-2-phenylethyl)urea]

EC50 | Structure (SMILES)
0.439 µM | COc1ccc(C[C@@H](NC(=O)NCc2ncc(Br)cc2F)c2nc3ccccc3[nH]2)cc1 [Example 291, (R)-1-(1-(1H-Benzo[d]imidazol-2-yl)-2-(4-methoxyphenyl)ethyl)-3-((5-bromo-3-fluoropyridin-2-yl)methyl)urea]
0.081 µM | COc1ccc(C[C@@H](NC(=O)NC(c2ccccn2)C(F)(F)F)c2nc3ccccc3[nH]2)cc1 (stereo partly drawn) [Example 292, 1-((R)-1-(1H-Benzo[d]imidazol-2-yl)-2-(4-methoxyphenyl)ethyl)-3-(2,2,2-trifluoro-1-(pyridin-2-yl)ethyl)urea]
0.168 µM | COc1ccc(C[C@@H](NC(=O)NCc2ccn(CC(F)(F)F)n2)c2nc3ccccc3[nH]2)cc1 [Example 293, (R)-1-(1-(1H-Benzo[d]imidazol-2-yl)-2-(4-methoxyphenyl)ethyl)-3-((1-(2,2,2-trifluoroethyl)-1H-pyrazol-3-yl)methyl)urea]
0.0076 µM | COc1ccc(C[C@@H](NC(=O)NCc2ccnn2-c2ccc(OC)cc2)c2nc3ccccc3[nH]2)cc1 [Example 294, (R)-1-(1-(1H-Benzo[d]imidazol-2-yl)-2-(4-methoxyphenyl)ethyl)-3-((1-(4-methoxyphenyl)-1H-pyrazol-5-yl)methyl)urea]
0.645 µM | COc1ccc(C[C@@H](NC(=O)NCCc2ccncc2)c2nc3ccccc3[nH]2)cc1 [Example 295, (R)-1-(1-(1H-Benzo[d]imidazol-2-yl)-2-(4-methoxyphenyl)ethyl)-3-(2-(pyridin-4-yl)ethyl)urea]
0.227 µM | COc1ccc(C[C@@H](NC(=O)NCCc2ccc(OC)cn2)c2nc3ccccc3[nH]2)cc1 [Example 296, (R)-1-(1-(1H-Benzo[d]imidazol-2-yl)-2-(4-methoxyphenyl)ethyl)-3-(2-(5-methoxypyridin-2-yl)ethyl)urea]
0.217 µM | COc1ccc(C[C@@H](NC(=O)NCCN2CCc3ccccc3C2)c2nc3ccccc3[nH]2)cc1 [Example 297, (R)-1-(1-(1H-Benzo[d]imidazol-2-yl)-2-(4-methoxyphenyl)ethyl)-3-(2-(3,4-dihydroisoquinolin-2(1H)-yl)ethyl)urea]
0.203 µM | COc1ccc(C[C@@H](NC(=O)NCc2nn(C)c3ccccc23)c2nc3ccccc3[nH]2)cc1 [Example 298, (R)-1-(1-(1H-Benzo[d]imidazol-2-yl)-2-(4-methoxyphenyl)ethyl)-3-((1-methyl-1H-indazol-3-yl)methyl)urea]
0.167 µM | COc1ccc(C[C@@H](NC(=O)NCCc2ccc3c(c2)OCO3)c2nc3ccccc3[nH]2)cc1 [Example 299, (R)-1-(1-(1H-Benzo[d]imidazol-2-yl)-2-(4-methoxyphenyl)ethyl)-3-(2-(benzo[d][1,3]dioxol-5-yl)ethyl)urea]
0.082 µM | COc1ccc(C[C@@H](NC(=O)NCCc2ccc(F)c(F)c2)c2nc3ccccc3[nH]2)cc1 [Example 300, (R)-1-(1-(1H-Benzo[d]imidazol-2-yl)-2-(4-methoxyphenyl)ethyl)-3-(3,4-difluorophenethyl)urea]
0.066 µM | COc1ccc(C[C@@H](NC(=O)N[C@H](C)c2ccc(C)cc2)c2nc3ccccc3[nH]2)cc1 [Example 301, 1-((R)-1-(1H-Benzo[d]imidazol-2-yl)-2-(4-methoxyphenyl)ethyl)-3-((R)-1-(p-tolyl)ethyl)urea]
0.129 µM | COc1ccc(C[C@@H](NC(=O)NCCc2ccc(Cl)cc2)c2nc3ccccc3[nH]2)cc1 [Example 302, (R)-1-(1-(1H-Benzo[d]imidazol-2-yl)-2-(4-methoxyphenyl)ethyl)-3-(4-chlorophenethyl)urea]
0.426 µM | COc1ccc(C[C@@H](NC(=O)NCc2cc(Cl)ccc2Cl)c2nc3ccccc3[nH]2)cc1 [Example 303, (R)-1-(1-(1H-Benzo[d]imidazol-2-yl)-2-(4-methoxyphenyl)ethyl)-3-(2,5-dichlorobenzyl)urea]
0.141 µM | COc1ccc(C[C@@H](NC(=O)NCc2c(Cl)cccc2Cl)c2nc3ccccc3[nH]2)cc1 [Example 304, (R)-1-(1-(1H-Benzo[d]imidazol-2-yl)-2-(4-methoxyphenyl)ethyl)-3-(2,6-dichlorobenzyl)urea]
0.08 µM | COc1ccc(C[C@@H](NC(=O)NCC2CCCc3ccccc32)c2nc3ccccc3[nH]2)cc1 (stereo partly drawn) [Example 305, 1-((R)-1-(1H-Benzo[d]imidazol-2-yl)-2-(4-methoxyphenyl)ethyl)-3-((1,2,3,4-tetrahydronaphthalen-1-yl)methyl)urea]
0.06 µM | COc1ccc(C[C@@H](NC(=O)NCCc2cc(C)ccc2C)c2nc3ccccc3[nH]2)cc1 [Example 306, (R)-1-(1-(1H-Benzo[d]imidazol-2-yl)-2-(4-methoxyphenyl)ethyl)-3-(2,5-dimethylphenethyl)urea]
